In ChEMBL document CHEMBL5050844 (2019):

Assays:
[1] = Induction of anti-CD3/CD28 antibodies-stimulated human T cell activation at 4 uM assessed fold increase in IL-2 secretion measured by ELISA assay; format: functional, T cell line
[2] = Induction of anti-CD3/CD28 antibodies-stimulated human T cell activation at 0.3 uM assessed fold increase in IL-2 secretion measured by ELISA assay; format: functional, T cell line
[3] = Induction of anti-CD3 antibodies-stimulated human T cell activation at 8 uM assessed fold increase in IL-2 secretion measured by ELISA assay; format: functional, T cell line; further: reference of the scale not given here
[4] = Induction of anti-CD3 antibodies-stimulated human T cell activation at 1 uM assessed fold increase in IL-2 secretion measured by ELISA assay; format: functional, T cell line; further: reference of the scale not given here
[5] = Induction of anti-CD3/CD28 antibodies-stimulated human T cell activation at 4 uM assessed fold increase in CD25 expression measured by ELISA assay; format: functional, T cell line
[6] = Induction of anti-CD3/CD28 antibodies-stimulated human T cell activation at 1 uM assessed fold increase in CD25 expression measured by ELISA assay; format: functional, T cell line
[7] = Induction of anti-CD3/CD28 antibodies-stimulated human T cell activation at 0.3 uM assessed fold increase in CD25 expression measured by ELISA assay; format: functional, T cell line
[8] = Induction of anti-CD3 antibodies-stimulated human T cell activation at 8 uM assessed fold increase in CD25 expression measured by ELISA assay; format: functional, T cell line; further: reference of the scale not given here
[9] = Induction of anti-CD3 antibodies-stimulated human T cell activation at 1 uM assessed fold increase in CD25 expression measured by ELISA assay; format: functional, T cell line; further: reference of the scale not given here
[10] = Induction of anti-CD3/CD28 antibodies-stimulated human CD4+ T cell activation at 10 uM assessed fold increase in CD69 expression measured by flow cytometry analysis; format: functional, T cell line
[11] = Induction of anti-CD3/CD28 antibodies-stimulated human CD4+ T cell activation at 10 uM assessed fold increase in cell proliferation measured by flow cytometry analysis; format: functional, T cell line
[12] = Induction of anti-CD3/CD28 antibodies-stimulated human CD4+ T cell activation at 1.11 uM assessed fold increase in cell proliferation measured by flow cytometry analysis; format: functional, T cell line
[13] = Induction of anti-CD3/CD28 antibodies-stimulated human CD8+ T cell activation at 1.11 uM assessed fold increase in CD69 expression measured by flow cytometry analysis; format: functional, T cell line
[14] = Induction of anti-CD3/CD28 antibodies-stimulated human CD8+ T cell activation at 10 uM assessed fold increase in cell proliferation measured by flow cytometry analysis; format: functional, T cell line
[15] = Induction of anti-CD3/CD28 antibodies-stimulated human CD8+ T cell activation at 1.11 uM assessed fold increase in cell proliferation measured by flow cytometry analysis; format: functional, T cell line
[16] = Induction of anti-CD3 antibodies-stimulated human CD4+ T cell activation at 10 uM assessed fold increase in CD69 expression measured by flow cytometry analysis; format: functional, T cell line; further: reference of the scale not given here
[17] = Induction of anti-CD3 antibodies-stimulated human CD4+ T cell activation at 1.11 uM assessed fold increase in CD69 expression measured by flow cytometry analysis; format: functional, T cell line; further: reference of the scale not given here
[18] = Induction of anti-CD3 antibodies-stimulated human CD8+ T cell activation at 10 uM assessed fold increase in CD69 expression measured by flow cytometry analysis; format: functional, T cell line; further: reference of the scale not given here
[19] = Induction of anti-CD3 antibodies-stimulated human CD8+ T cell activation at 1.11 uM assessed fold increase in CD69 expression measured by flow cytometry analysis; format: functional, T cell line; further: reference of the scale not given here
[20] = Induction of anti-CD3/CD28 antibodies-stimulated human T cell activation at 10 uM assessed fold increase in GM-CSF secretion measured by ELISA assay; format: functional, T cell line
[21] = Induction of anti-CD3 antibodies-stimulated human T cell activation at 10 uM assessed fold increase in GM-CSF secretion measured by ELISA assay; format: functional, T cell line; further: reference of the scale not given here
[22] = Induction of anti-CD3 antibodies-stimulated human T cell activation at 1.11 uM assessed fold increase in GM-CSF secretion measured by ELISA assay; format: functional, T cell line; further: reference of the scale not given here
[23] = Induction of anti-CD3/CD28 antibodies-stimulated human T cell activation at 10 uM assessed fold increase in IFN-gamma secretion measured by ELISA assay; format: functional, T cell line
[24] = Induction of anti-CD3/CD28 antibodies-stimulated human T cell activation at 1.11 uM assessed fold increase in IFN-gamma secretion measured by ELISA assay; format: functional, T cell line
[25] = Induction of anti-CD3 antibodies-stimulated human T cell activation at 10 uM assessed fold increase in IFN-gamma secretion measured by ELISA assay; format: functional, T cell line; further: reference of the scale not given here
[26] = Induction of anti-CD3 antibodies-stimulated human T cell activation at 1.11 uM assessed fold increase in IFN-gamma secretion measured by ELISA assay; format: functional, T cell line; further: reference of the scale not given here
[27] = Induction of allogenic human T cell activation at 10 uM assessed fold increase in cell proliferation; format: functional, T cell line
[28] = Induction of allogenic human T cell activation at 3 uM assessed fold increase in cell proliferation; format: functional, T cell line
[29] = Induction of anti-CD3 antibodies-stimulated human exhausted T cell activation assessed fold increase in IFN-gamma secretion measured by ELISA assay; format: functional, T cell line; further: reference of the scale not given here
[30] = Induction of anti-CD3 antibodies-stimulated human exhausted T cell activation assessed fold increase in IL-2 secretion measured by ELISA assay; format: functional, T cell line; further: reference of the scale not given here
[31] = Induction of anti-CD3 antibodies-stimulated human exhausted T cell activation assessed fold increase in GM-CSF secretion measured by ELISA assay; format: functional, T cell line; further: reference of the scale not given here
[32] = Induction of anti-CD3 antibodies-stimulated human exhausted CD4+ T cell activation assessed fold increase in CTLA4 expression measured by flow cytometry analysis; format: functional, T cell line; further: reference of the scale not given here
[33] = Induction of anti-CD3/CD28 antibodies-stimulated human anergic T cell activation at 10 uM assessed fold increase in IFN-gamma secretion measured by ELISA assay; format: functional, T cell line
[34] = Induction of anti-CD3/CD28 antibodies-stimulated human anergic T cell activation at 1.11 uM assessed fold increase in IFN-gamma secretion measured by ELISA assay; format: functional, T cell line
B cell = experiment: Induction of anti-IgM-stimulated human CD20+ B cell activation at 10 to 1000 uM assessed as increase in CD69 expression measured as mean fluorescence intensity AUC by flow cytometry analysis; format: functional, cell-based; details: dose 10-1000 µM
[35] = Induction of activation of human CD56+ CD3- NK cells co-cultured with human K562 cells in 1:1 ratio and assessed as increase in IFN-gamma secretion at 10 uM measured by ELISA assay; format: functional, Natural killer cell
[36] = Induction of activation of human CD56+ CD3- NK cells co-cultured with human K562 cells in 1:1 ratio and assessed as increase in IFN-gamma secretion at 0.625 uM measured by ELISA assay; format: functional, Natural killer cell
[37] = Induction of activation of human CD56+ CD3- NK cells co-cultured with human K562 cells in 1:1 ratio and assessed as increase in TNF-alpha secretion at 2.5 uM measured by ELISA assay; format: functional, Natural killer cell
[38] = Induction of activation of human CD56+ CD3- NK cells co-cultured with human K562 cells in 1:1 ratio and assessed as increase in TNF-alpha secretion at 0.625 uM measured by ELISA assay; format: functional, Natural killer cell

Row | Compound | fold change (FC) [1] | fold change (FC) [2] | fold change (FC) [3] | fold change (FC) [4] | fold change (FC) [5] | fold change (FC) [6] | fold change (FC) [7] | fold change (FC) [8] | fold change (FC) [9] | fold change (FC) [10] | fold change (FC) [11] | fold change (FC) [12] | fold change (FC) [13] | fold change (FC) [14] | fold change (FC) [15] | fold change (FC) [16] | fold change (FC) [17] | fold change (FC) [18] | fold change (FC) [19] | fold change (FC) [20] | other results
1 | Cn1cnnc1[C@@H]1C[C@@H]1c1cccc(N2Cc3c(ccnc3C(F)(F)F)C2=O)c1 | 1.01 | 1.01 | 0.101 | 0.051 | 1.01 | 1.01 | 1.01 | 0.801 | 0.601 | 1.401 | >4 | <=2 | <=1.2 | 2.01 | <=2 | <=1.2 | <=1.2 | <=1.2 | <=1.2 | 2.01 | fold change (FC) [21]: <=1.5; fold change (FC) [22]: <=1.5; fold change (FC) [23]: <=2; fold change (FC) [24]: <=2; fold change (FC) [25]: <=2; fold change (FC) [26]: <=2; fold change (FC) [27]: <=2; fold change (FC) [28]: <=2; fold change (FC) [29]: <=1.4; fold change (FC) [30]: <=2.5; fold change (FC) [31]: <=1.4; fold change (FC) [32]: <=1.4; fold change (FC) [33]: 2.51; fold change (FC) [34]: <=2.5; AUC (B cell): 1.01; fold change (FC) [35]: 2.01; fold change (FC) [36]: 1.01; fold change (FC) [37]: <=1; fold change (FC) [38]: <=1
2 | Cn1cnnc1CC1(c2cccc(N3Cc4c(cc(CN5CC[C@H](C#N)C5)cc4C(F)(F)F)C3=O)c2)COC1 | >=7.5 | 5 | >=0.201 | >=0.201 | 1.31 | 1.31 | 1.31 | >=1.001 | >=1.001 | 1.401 | >4 | >4 | 1.201 | 3.01 | 2.01 | >1.601 | 1.401 | 1.201 | <=1.2 | >4 | fold change (FC) [21]: 2.01; fold change (FC) [22]: 2.01; fold change (FC) [23]: >4; fold change (FC) [24]: 3.01; fold change (FC) [25]: 3.01; fold change (FC) [26]: <=2; fold change (FC) [27]: 2.01; fold change (FC) [28]: <=2; fold change (FC) [29]: <=1.4; fold change (FC) [30]: <=2.5; fold change (FC) [31]: 1.41; fold change (FC) [32]: >1.61; fold change (FC) [33]: 2.51; fold change (FC) [34]: 2.51; AUC (B cell): 1.01; fold change (FC) [35]: 2.01; fold change (FC) [36]: 2.01; fold change (FC) [37]: 1.01; fold change (FC) [38]: 1.01
3 | C[C@H](Cc1nncn1C)c1cccc(N2Cc3c(cc(CN4CC(O)C4)cc3C(F)(F)F)C2=O)c1 | >=7.5 | 2.51 | >=0.201 | >=0.201 | 1.31 | 1.31 | 1.01 | >=1.001 | >=1.001 | 1.201 | 3.01 | <=2 | <=1.2 | 2.01 | <=2 | 1.201 | 1.201 | <=1.2 | <=1.2 | 1.51 | fold change (FC) [21]: <=1.5; fold change (FC) [22]: <=1.5; fold change (FC) [23]: >4; fold change (FC) [24]: 2.01; fold change (FC) [25]: <=2; fold change (FC) [26]: <=2; fold change (FC) [27]: 2.01; fold change (FC) [28]: <=2; fold change (FC) [29]: >1.61; fold change (FC) [30]: >3.01; fold change (FC) [31]: 1.41; fold change (FC) [32]: >1.61; fold change (FC) [33]: >4.01; fold change (FC) [34]: 2.51; AUC (B cell): 0.5; fold change (FC) [35]: 2.01; fold change (FC) [36]: 2.01; fold change (FC) [37]: 2.01; fold change (FC) [38]: 1.01
